Read-outs that look alike come from different tables or passages of the source.
Experiments:
Format in all cases: in vivo
[1] = test system: Myzus persicae; assay: Green peach aphid (Myzus persicae) systemic artificial diet test; conditions: 72 h, read-out: mortality in comparison with untreated controls (aphid mortality)
From the text: For evaluating control of green peach aphid (Myzus persicae) through systemic means the test unit consisted of 96-well-microtiter plates containing liquid artificial diet under an artificial membrane.
The compounds were formulated using a solution containing 75% v/v water and 25% v/v DMSO. Different concentrations of formulated compounds were pipetted into the aphid diet, using a custom built pipetter, at two replications.
After application, 5-8 adult aphids were placed on the artificial membrane inside the microtiter plate wells. The aphids were then allowed to suck on the treated aphid diet and incubated at about 23±1° C. and about 50±5% relative humidity for 3 days. Aphid mortality and fecundity was then visually assessed.

[2] = test system: Dichromothrips corbetti; assay: Orchid thrips (Dichromothrips corbetti) floral-immersion test; conditions: read-out: mortality in comparison with untreated controls
Experimental: Dichromothrips corbetti adults used for bioassay were obtained from a colony maintained continuously under laboratory conditions. For testing purposes, the test compound is diluted in a 1:1 mixture of acetone:water (vol:vol), plus 0.01% vol/vol Alkannuls® EL 620 surfactant.
Thrips potency of each compound was evaluated by using a floral-immersion technique. Plastic petri dishes were used as test arenas. All petals of individual, intact orchid flowers were dipped into treatment solution and allowed to dry. Treated flowers were placed into individual petri dishes along with about 20 adult thrips. The petri dishes were then covered with lids. All test arenas were held under continuous light and a temperature of about 28° C. for duration of the assay. After 3 days, the numbers of live thrips were counted on each flower, and along inner walls of each petri dish. The percent mortality was recorded 72 hours after treatment.

[3] = test system: Nephotettix virescens; assay: Rice green leafhopper (Nephotettix virescens) rice seedling spray test; conditions: read-out: mortality in comparison with untreated controls
Experimental: Rice seedlings were cleaned and washed 24 hours before spraying. The active compounds were formulated in 50:50 acetone:water (vol:vol), and 0.1% vol/vol surfactant (EL 620) was added. Potted rice seedlings were sprayed with 5 ml test solution, air dried, placed in cages and inoculated with 10 adults. Treated rice plants were kept at about 28-29° C. and relative humidity of about 50-60%. Percent mortality was recorded after 72 hours.

[4] = test system: Nilaparvata lugens; assay: Rice brown plant hopper (Nilaparvata lugens) rice seedling spray test; conditions: read-out: mortality in comparison with untreated controls
Experimental: Rice seedlings were cleaned and washed 24 hours before spraying. The active compounds were formulated in 50:50 acetone:water (vol:vol) and 0.1% vol/vol surfactant (EL 620) was added. Potted rice seedlings were sprayed with 5 ml test solution, air dried, placed in cages and inoculated with 10 adults. Treated rice plants were kept at about 28-29° C. and relative humidity of about 50-60%. Percent mortality was recorded after 72 hours.

[5] = test system: Heliothis virescens; assay: Tobacco budworm (Heliothis virescens) diet microtiter plate test; conditions: 120 h, read-out: mortality in comparison with untreated controls (egg and larval mortality)
Experimental: For evaluating control of tobacco budworm (Heliothis virescens) the test unit consisted of 96-well-microtiter plates containing an insect diet and 15-25 H. virescens eggs. The compounds were formulated using a solution containing 75% v/v water and 25% v/v DMSO. Different concentrations of formulated compounds were sprayed onto the insect diet at 10 μl, using a custom built micro atomizer, at two replications.
After application, microtiter plates were incubated at about 28±1° C. and about 80±5% relative humidity for 5 days. Egg and larval mortality was then visually assessed.

[6] = test system: Megoura viciae; assay: Vetch aphid (Megoura viciae) leaf disk test; conditions: foliar, 120 h, read-out: mortality in comparison with untreated controls (aphid mortality)
Experimental: For evaluating control of vetch aphid (Megoura viciae) through contact or systemic means the test unit consisted of 24-well-microtiter plates containing broad bean leaf disks.
The compounds were formulated using a solution containing 75% v/v water and 25% v/v DMSO. Different concentrations of formulated compounds were sprayed onto the leaf disks at 2.5 μl, using a custom built micro atomizer, at two replications.
After application, the leaf disks were air-dried and 5-8 adult aphids placed on the leaf disks inside the microtiter plate wells. The aphids were then allowed to suck on the treated leaf disks and incubated at about 23±1° C. and about 50±5% relative humidity for 5 days. Aphid mortality and fecundity was then visually assessed.

[7] = test system: Tetranychus spp; assay: Spider mite (Tetranychus spp) potted cotton plant spray test; conditions: sprayed potted cotton plants, 72 hours after treatment, read-out: mortality in comparison with untreated controls
Experimental: The active compound is dissolved at the desired concentration in a mixture of 1:1 (vol:vol) distilled water:acetone. The test solution is prepared at the day of use. Potted cotton plants at two weeks of age were cleaned, air dried and inoculated with approximately 50 mites of various stages. The potted plants are sprayed after the pest population has been recorded. Percent mortality is recorded 72 hours after treatment.

[8] = test system: Anthonomus grandis; assay: Boll weevil (Anthonomus grandis) diet microtiter plate test; conditions: 120 h, read-out: mortality in comparison with untreated controls (egg and larval mortality)
Experimental: For evaluating control of boll weevil (Anthonomus grandis) the test unit consisted of 96-well-microtiter plates containing an insect diet and 5-10 A. grandis eggs.
The compounds were formulated using a solution containing 75% v/v water and 25% v/v DMSO. Different concentrations of formulated compounds were sprayed onto the insect diet at 5 μl, using a custom built micro atomizer, at two replications.
After application, microtiter plates were incubated at about 25±1° C. and about 75±5% relative humidity for 5 days. Egg and larval mortality was then visually assessed.

[9] = 500 ppm, sprayed rice seedlings, after 72 hours

C[n+]1c([O-])c(-c2ccccc2)c(=O)n2c1CCC2c1ccc(Cl)nc1 (centres unmarked) [Compound C-1]
> 75%: mortality at 2500 ppm [1] | mortality at 500 ppm ([2]; 72 h) | mortality at 500 ppm ([3]; 72 h) | mortality at 500 ppm ([4]; 72 h) | mortality at 2500 ppm [5] | mortality at 2500 ppm [6]

CC[n+]1c([O-])c(-c2ccccc2)c(=O)n2c1CCCC2c1ccc(Cl)nc1 (centres unmarked) [Compound C-9]
> 75%: mortality at 2500 ppm [1] | mortality at 500 ppm [7] | mortality at 2500 ppm [6]

CN1C(=O)C(c2ccccc2)=C([O-])[N+]2=C(c3cnc(Cl)s3)CSC12 (centres unmarked) [Compound C-38]
> 75%: mortality at 2500 ppm ([1]; 2500 ppm, in aphid diet, 3 days) | mortality at 500 ppm ([2]; 500 ppm, floral immersion, 72 hours after treatment) | mortality at 500 ppm [3, 9] | mortality at 500 ppm [4, 9] | mortality at 2500 ppm ([5]; 2500 ppm, sprayed onto insect diet, 5 days) | mortality at 2500 ppm ([6]; 2500 ppm, sprayed broad bean leaf disks, 5 days)

Cn1c2[n+](c([O-])c(-c3ccccc3)c1=O)[C@@H](c1cnc(Cl)s1)CC2 [Compound C-42]
> 75%: mortality at 500 ppm ([2]; 72 h) | mortality at 500 ppm ([3]; 72 h) | mortality at 500 ppm ([4]; 72 h) | mortality at 500 ppm [7]

CCn1c([O-])c(-c2cc(Cl)cc(Cl)c2)c(=O)[n+]2c1COC2c1ccc(Cl)nc1 (centres unmarked) [Compound C-44]
> 75%: mortality at 2500 ppm [8] | mortality at 2500 ppm [1] | mortality at 2500 ppm [5] | mortality at 2500 ppm [6]

From patent US11019820B2 (BASF SE, priority 2013, dated 2021)
